Measurements from PMC11858597, “Synthesis, Anticancer Screening, and In Silico Evaluations of Thieno[2,3-c]pyridine Derivatives as Hsp90 Inhibitors” (Pharmaceuticals, 2025).

Experiments:
MCF7 = assay: MTT assay, MCF7 breast cancer cells; type: cell-based
From the text: (§1) An MTT assay was used to evaluate the final compounds’ anticancer activity against MCF7 and T47D (breast cancer cells), HSC3 (head and neck cancer cells), and RKO (colorectal cancer cells) cell lines, using cisplatin as a reference standard. Table 1 presents the percentage growth inhibition of all compounds against the various cancer cell lines.
(§2) The cancer cell lines MCF7 and T47D (breast cancer cells), HSC3 (head and neck cancer cells), and RKO (colorectal cancer cells) were kindly provided by Prof. Stephan Feller, Institute of Molecular Medicine, Martin Luther University, Halle, Germany. The human fibroblast (PDL) cell line was obtained as a kind gift from Prof. Khaled Al-Qaoud (Yarmouk University, Irbid, Jordan). All cell lines were cultured in Dulbecco’s Modified Eagle’s Medium (DMEM) supplemented with 10% fetal bovine serum, 100 µg/mL streptomycin, 100 U/mL penicillin, and 1% non-essential amino acid at 37 °C with 5% CO2 in a humidified CO2 incubator. The cell cultures were grown to confluence, and the medium was changed two times weekly.
(§3) The MTT (3-[4,5-dimethylthiazol-2-yl]-2,5-diphenyl tetrazolium bromide) assay was used to investigate cell viability and to calculate the half-maximal inhibitory concentration (IC50) values of the compounds 6(a–k) including standard reference cisplatin. Furthermore, […] stock solutions of the compounds were prepared in DMSO where all compounds were completely soluble. Cells were seeded in 96-well tissue culture plates at a density of 6,000 cells/well for MCF7, T47D, and PDL cells and at a density of 4000 cells/well for RKO and HSC3 cells. After 24 h of seeding, investigated cells were treated with three concentrations (1, 10, and 100 µm) of the compounds for 72 h. At the end of the treatment time, the supernatant medium was aspirated, and 50 µL of fresh DMEM containing MTT (0.5 mg/mL) was added to each well. Cells were then incubated at 37 °C for 2–4 h. After that, the medium was completely removed, and 50 µL of DMSO was added to each well to dissolve the precipitated formazan crystals formed by viable cells. Cell viability, represented by the absorbance of the formazan solution, was measured at 570 nm using the Synergy HTX Multimode Reader (BioTek, Vermont, USA), and cell viability was determined as described in the literature. For each concentration, the relative cell viability was calculated as follows: relative cell viability = (mean treatment absorbance/mean control absorbance) × 100%. Assays were performed in triplicate on three independent experiments. […] IC50 values were then calculated using the four-parameter logistic function in the SigmaPlot software (version 12.5) and presented as the mean ± SD from three independent experiments.

T47D = assay: MTT assay, T47D breast cancer cells; type: cell-based; conditions: Homo sapiens, 72 h
From the text: as §1, §2, §3

HSC3 = assay: MTT assay, HSC3 head and neck cancer cells; type: cell-based
From the text: as §1, §2, §3

RKO = assay: MTT assay, RKO colorectal cancer cells; type: cell-based; conditions: Homo sapiens, 72 h
From the text: as §1, §2, §3

PDL = assay: MTT assay, normal fibroblast cell line (PDL); type: cell-based, human; conditions: 72 h
From the text: To understand the selectivity of compounds, a normal fibroblast cell line (human periodontal ligament-PDL) is also included in this IC50 determination.
as §2, §3

HSC3 cells [1] = assay: Apoptosis evaluation by Annexin V/PI staining, HSC3; type: cell-based; conditions: HSC3, IC50 concentration, 72 h
Description: (§4) To further examine the processes responsible for reduced cell viability, apoptosis was evaluated by Annexin V/Propidium Iodide (PI) double staining, as outlined in the experimental section by considering the best active compound 6i. […] Annexin V/PI staining detects very little increase in Annexin-positive cells; 6i-treated cells were stained with Annexin V and PI for fluorescence-activated cell sorting (FACS) analysis. The results establish that 6i may promote cell death by processes distinct from apoptosis, deserving further investigation into alternative pathways, such as autophagy or ferroptosis.
(§5) Floating dead cells and the attached cells were collected, washed with PBS, and resuspended in 100 μL of Annexin V solution for 30 min according to the manufacturer’s instruction (Annexin V-FITC Kit, Miltenyi Biotec, Gaithersburg, MD, USA, Catalog Number 130-092-052). After Annexin V staining, cells were stained shortly with PI to exclude the dead cells. The quantitative analysis for apoptosis was performed by FACS Accuri C6 Plus (BD BIOSCIENCES, Franklin Lakes, NJ, USA) flow cytometer. About 10,000 events were analyzed using the FlowJo software (version 10).

RKO cells [2] = assay: Apoptosis evaluation by Annexin V/PI staining, RKO; type: cell-based; conditions: IC50 concentration, 72 h
Description: as §4, §5

HSC3 cells [3] = assay: Cell cycle analysis (PI staining), HSC3; type: cell-based; conditions: HSC3, IC50 concentration, 72 h
Description: (§6) In a subsequent set of experiments, we aimed to evaluate the effect of compound 6i on the cell cycle. Treatment with 6i led to a significant accumulation of HSC3 and RKO cells in the G2 phase (HSC3: control, 34.6% ± 3.2% vs. 6i, 46.4% ± 3.6%; RKO: control, 34.5% ± 2.9% vs. 6i, 64.2% ± 3.5%).
(§7) The supernatant with the floating dead cells and the attached cells from each well were collected and fixed in cold ethanol at −20 °C for 30 min [69]. Cells were stained with a Propidium iodide (PI) working solution (1 µg/mL PI and 10 µg/mL RNase A in PBS) for 30 min at 37 °C in the dark and then washed with PBS. Cell fluorescence was measured using the FACS Accuri C6 Plus (BD BIOSCIENCES, Franklin Lakes, NJ, USA) flow cytometer. Histograms of cell counts versus […] fluorescence were generated, and the distribution of cells throughout several cell cycle stages was assessed based on the mean fluorescence intensity values. About 10,000 events were examined utilizing FlowJo software (version 10).

RKO cells [4] = assay: Cell cycle analysis (PI staining), RKO; type: cell-based; conditions: IC50 concentration, 72 h
Description: as §6, §7

Hsp90 = system: Hsp90; parameters: method as in PMID 20371713; conditions: against breast cancer; read-out: Hsp90 inhibition IC50; cited from earlier work
[5] = 1 µM, read-out: % cell growth inhibition
[6] = 10 µM, read-out: % cell growth inhibition
[7] = 100 µM, read-out: % cell growth inhibition

Structure (SMILES): CCOC(=O)c1c(NC(=O)CN2CCSCC2)sc2c1CCN(C(=O)OCC)C2 [6i, Diethyl 2-(2-thiomorpholinoacetamido)-4,7-dihydrothieno[2,3-c]pyridine-3,6(5H)-dicarboxylate]
- IC50 (MCF7; Homo sapiens, MCF7, 72 h): 16.4 ± 0.2 µM
- inhibition at 1 µM (MCF7; Homo sapiens, MCF7, 1 µM, 72 h, read-out: % cell growth inhibition): 1.53%
- inhibition at 10 µM (MCF7; Homo sapiens, MCF7, 10 µM, 72 h, read-out: % cell growth inhibition): 39.1%
- inhibition at 100 µM (MCF7; Homo sapiens, MCF7, 100 µM, 72 h, read-out: % cell growth inhibition): 95.3%
- % cell growth inhibition (MCF7; MCF7, 1 µM, 72 h): weak inhibition
- inhibition at 1 µM (T47D; [5]): 1.9%
- inhibition at 10 µM (T47D; [6]): 35.3%
- inhibition at 100 µM (T47D; [7]): 83.9%
- IC50 (T47D): 11.7 ± 1.1 µM
- % cell growth inhibition (HSC3; HSC3, 100 µM, 72 h, 100 µM): 94.04%
- inhibition at 1 µM (HSC3; Homo sapiens, HSC-3, 72 h, HSC3, 1 µM, 72 h, read-out: % cell growth inhibition): 14.8%
- inhibition at 10 µM (HSC3; Homo sapiens, HSC-3, 72 h, HSC3, 10 µM, 72 h, read-out: % cell growth inhibition): 62.3%
- inhibition at 100 µM (HSC3; Homo sapiens, HSC-3, 72 h, HSC3, 100 µM, 72 h, read-out: % cell growth inhibition): 94%
- IC50 (HSC3; Homo sapiens, HSC-3, HSC3, 72 h): 10.8 ± 3.9 µM
- inhibition at 1 µM (RKO; [5]): 5.17%
- inhibition at 10 µM (RKO; [6]): 55.4%
- inhibition at 100 µM (RKO; [7]): 92.5%
- IC50 (RKO): 12.4 ± 1.9 µM
- IC50 (PDL; Homo sapiens, Fibroblast, PDL normal fibroblasts): > 100 µM
- toxicity to normal fibroblast cell lines, PDL (PDL; PDL): no toxicity
- proportion of apoptotic cells with positive Annexin V staining (HSC3 cells [1]): significantly lower
- proportion of apoptotic cells with positive Annexin V staining (RKO cells [2]): significantly lower
- proportion of cells in the G1 and S phases (HSC3 cells [3]; vs control): markedly reduced
- cells in the G2 phase (HSC3 cells [3]; control 34.6% ± 3.2%): 46.4% ± 3.6%
- cells in the G2 phase (RKO cells [4]; control 34.5% ± 2.9%): 64.2% ± 3.5%
- proportion of cells in the G1 and S phases (RKO cells [4]; vs control): markedly reduced

Structure (SMILES): CCNC(=O)c1cc2c(-c3cc(OCCN4CCCC4)c(Cl)cc3Cl)nc(N)nc2s1 [NVP-BEP800]
- IC50 (Hsp90): 0.058 µM
